{
  "source": "patent US5821046A",
  "about": "“RNA oligonucleotides that bind HIV tat protein” (RiboTargets Holdings PLC, priority 1990, dated 1998)",
  "key": {"HIV-1 tat protein [1]": {"test_system": "HIV-1 tat protein", "assay_type": "binding", "settings": "32P-labeled RNA transcript, 0 to 600 ng tat", "description": "i) Gel retardation assays (FIG. 6) Method RNA transcripts were prepared by transcription with either T3 or T7 RNA polymerases of TAR regions residues +1 to +57, cloned between the HindIII and EcoRI sites of the Bluescribe M13+expression vector (Stratagene). RNA transcripts corresponding to HIV-1 TAR [SEQ ID NO: 1], SSA [SEQ ID NO: 3], SAA and SAS [SEQ ID NO: 5] were synthesized from clones linearized with EcoRI and transcribed with T3 RNA polymerase. RNA transcripts corresponding to the antisense HIV-1 TAR […], AAS , ASS [SEQ ID NO: 4], and ASA (not shown) sequences were prepared from the same plasmids linearized with HindIII and transcribed using T7 RNA polymerase. All other RNA molecules were synthesized using T3 RNA polymerase following EcoRI cleavage of the plasmid vector. The RNA products each carry 13 nucleotides of vector sequence at their 5' end and four nucleotides at their 3' ends. […] Transcription mixtures contained 1 ug linearized plasmid, 40 mM Tris-HCl pH 8.0, 10 mM MgCl 2, 2 mM Spermidine-HCl, 50 mM NaCl, 100 uM each ribonucleotide triphosphate, 40 uCi (alpha-^32 P) UTP (410 Ci/m mol) and 10 units of RNA polymerase in a final volume of 30 ul and were incubated at 37° C. for 30 minutes. After phenol extraction and precipitation from ethanol the RNA was purified from a 9% polyacrylamide denaturing gel. The specific activity of the RNA product was determined and appropriate amounts were used in binding assays. Binding reaction mixtures (1 5ul) contained 1 ng of uniformly labeled RNA probe, 0.5 ug calf thymus DNA, 0.2 ug yeast TRNA, 40 units RNAsin (Promega), 50 mM Tris-HCl and 20 mM KCl and 0 to 600 ng tat protein, prepared from E. coli beta-galactosidase-tat fusion proteins, as described previously (6). After incubation at either 30° C. or 4° C. for 10-20 minutes, the reaction mixtures were applied to a 6% non-denaturing polyacrylamide gel (Acrylamide: Bis, 40:0.5) in 3.3 mM sodium acetate, 6.7 mM Tris (adjusted to pH 7.9 with HCl). The gel buffer was recirculated during electrophoresis at 35 mA for approximately 2 hours at room temperature. Gels were dried and exposed to X-ray film at -80° C. using intensifying screens."}, "HIV-1 tat protein [2]": {"test_system": "HIV-1 tat protein", "assay": "direct filter binding assay of tat to TAR RNA (saturation binding, Scatchard analysis)", "settings": "direct filter binding; HIV-1 TAR from saturation binding/Scatchard plot, mutants estimated from half-maximal binding; read-out: Kd (dissociation constant of tat binding)", "description": "The results shown graphically in FIG. 4 are from experiments in which binding reactions (500 ul) contained 40 nMolar^32 P uniformly radiolabelled TAR RNA at a specific activity of 100,000 Ci/mole; 0.5 ug calf thymus DNA; 0.2 ug yeast TRNA; 40 units RNAsin (Promega); 50mm Tris-HCl pH 7.9 and 20 mM KCl. Reaction mixtures were set up on ice and increasing amounts of HIV-1 tat protein were added and the reaction mixtures were filtered through prewashed nitrocellulose filters (Millipore 0.45 uM pore size). The filters were dried and counted by liquid scintillation counting. The fraction of radiolabeled RNA bound was plotted against HIV-1 tat concentration.\nBinding was measured by a filter-binding assay as described below under \"Method\", using monomeric tat protein prepared by CNBr cleavage of a human growth hormone-tat fusion protein expressed in E. coli. Reactions for saturation binding contained labeled TAR RNA [SEQ ID NO: 1] or antisense TAR RNA [SEQ ID NO: 6] at 10 nm and between 0 to 300 nM purified tat protein. Antisense TAR RNA was used as a control, since antisense TAR is unable to form stable complexes with tat in gel-retardation assays (Dingwall et al., 1989).\nThe stoichiometry of the tat/TAR interaction was determined by varying the TAR RNA concentrations over a wide range, while keeping the tat protein concentration constant near the Kd. For this Scatchard analysis, the tat protein concentration was held constant at 40 nM and the RNA concentration was varied between 7nM and 320 nM. The total amount of labeled RNA was kept constant in the binding reactions, but the specific activity of the RNA was varied. […]\nTat protein was prepared either from beta-galactosidase-tat fusion proteins (6) or from human growth-hormone-tat fusion proteins (85) using an improved method. In brief, inclusion body pellets containing the fusion protein were solubilized in 7M GdHCl, 50 mM Tris-HCl pH8.0, 2 mM EDTA, 2mM DTT and the fusion protein was purified to near homogeneity by ion-exchange chromatography on Q-Sepharose and S-Sepharose (Pharmacia) in buffers containing […], 50 mM Tris-HCl pH8.0, 2mM EDTA, 2mM DTT. The cysteine residues were protected by disulphide-exchange with 20 mM 2-hydroxyethyldisulphide (86), and the protein was cleaved by cyanogen bromide (6). The basic tat protein was then separated from the acidic human growth hormone peptides by ion-exchange chromatography on Q-Sepharose and S-Sepharose in 6M Urea. The protecting groups were then removed from the protein by addition of 10 mM DTT and the protein refolded by stepwise dialysis against 6 m Urea, 5M Urea,3M Urea, 1M Urea and 0M Urea in a buffer containing 50 mM Tris-HCl pH8.0, 100 uM DTT, 10 uM ZnCl2 Tat protein refolded in this manner elutes as a monomer from Superose 12 columns (Pharmacia) and migrates as a single band on polyacrylamide gels. Protein prepared by both methods behaved comparably in binding assays.\nA wide variety of parameters affecting the binding of tat protein to TAR RNA were studied and binding conditions were optimized. Binding of tat to TAR has a distinct pH optimum at pH 8.0, but good binding is observed between pH 7.5 and pH 8.5. Tat/TAR complexes are very sensitive to ionic strength. […] Addition of Zn^+2, Cd^+2, Ca^+2, Mg,^+2, Fe^+2 or Fe^+3 ions to the reaction mixtures […]. However, the binding reaction is sensitive to EDTA at greater than 0.1 mM EDTA. Complex formation is also somewhat temperature sensitive. Optimal binding is observed at 0°C. Between 15° C. and 30° C. there is a 30% reduction in complex formation. […]"}, "HIV-1 tat protein [3]": {"test_system": "HIV-1 tat protein", "assay": "competition filter binding assay, mutant TAR transcripts against labelled HIV-1 TAR RNA (FIG. 7, Table 1)", "settings": "20 nM TAR RNA, 40 nM tat protein; for IC50: read-out: D1/2 (concentration of competitor RNA that reduces binding of HIV-1 tat to HIV-1 TAR RNA to 50%)", "quoted_text": "Binding reactions (500 ul) were set up on ice and contained 80 pM ^32 P-labeled TAR RNA (17,600 dpm, 200 uCi/n mol) and unlabeled TAR RNA to give a final concentration of 20 nM, 0.5 ug calf thymus DNA, 0.2 ug yeast tRNA, 40 units RNAsin (Promega), 50 mM Tris HCl and 20 mM KCl. After addition of competitor RNA, binding was initiated by addition of HIV-1 tat protein to a final concentration of 400 ng/ml (40 nM). The binding reaction mixtures were then filtered under reduced pressure through pre-washed nitrocellulose filters (Millipore 0.45 uM pore size) and filters were dried and counted by liquid scintillation counting.\nThe fraction of^32 P-labeled TAR RNA bound was plotted against the final concentration of competitor RNA. In these experiments reactions included 20 nM TAR and 40 nM tat protein and increasing amounts of unlabeled competitor RNA from 40 nm to 6 uM. […] In theory, 40 nM tat will bind 50% of the input TAR RNA (D1/2) when the total TAR RNA concentration is 56 nM.\nFor competition experiments, binding reactions (500 ul) were set up on ice and contained 80 pM ^32 P-labeled TAR RNA (17,600 dpm, 200 uCi/n mol) and unlabeled TAR RNA to give a final concentration of 20 nM, 0.5 ug calf thymus DNA, 0.2 ug yeast TRNA, 40 units RNAsin (Promega), 50 mM Tris-HCl pH 7.9 and 20 mM KCl. After addition of 0 to 6 uM competitor RNA, binding was initiated by addition of HIV- 1 tat protein to a final concentration of 400 ng/mi (40 nM). The binding reaction mixtures were then filtered under reduced pressure through pre-washed nitrocellulose filters (Millipore 0.45 u pore size) and filters were dried and counted by liquid scintillation counting.\nKRel is the ratio of the D1/2 values for HIV-1 TAR and competitor RNA."}, "[4]": {"test_system": "tat-dependent promoter activity of viral LTR carrying the TAR sequence", "assay": "trans-activation CAT assay, HeLa cells cotransfected with LTR-CAT test plasmid and tat expression plasmid", "assay_type": "cell-based", "settings": "HeLa cells cotransfected with tat plasmid", "from_the_text": "If tat binding to TAR is necessary for trans-activation, then viral LTRs carrying TAR sequences with low affinities for tat should always have reduced tat-dependent promoter activity in vivo. Site-directed mutagenesis experiments on TAR have shown that trans-activation requires sequences in both the U-rich bulge (10, 11) and the loop sequence (12, 27, 28). These observations have now been extended, using TAR mutations with known affinities for tat in transfection experiments, the results of which are shown in FIG. 8. The experiments used either HeLa cells (FIG. 8a-d) or a constitutive producer of tat, HeLa/C63/tat cells (FIG. 8e-f).\nThe TAR sequences depicted in FIG. 3 [SEQ ID NO: 1-11] were introduced into a test plasmid, pD5-3-3, which carries a LTR and approximately 300 bases of 5' flanking sequences derived from the infectious proviral clone NL4 (29). The bacterial chloramphenicol acetyltransferase (CAT) gene and SV40 intron and terminator sequence from pSV2-CAT (30) was inserted downstream of TAR by cloning into the HindIII site at +77. Trans-activation was measured either by cotransfection of HeLa cells with the test plasmids and the tat expression plasmid pC63-4-1 (6) (panels a-d in […]), or by transfection of the test plasmids alone into HeLa/C63/tat (clone 9) cells (panels e-h). […]"}, "HIV-1 Tat [5]": {"biological_target": "T1, HIV-1 Tat (Human immunodeficiency virus 1, UniProt P04608 P04608:1-86)", "assay": "competition; D1/2; unmodified 18+15 duplex 65 nM", "settings": "duplex with bulge"}, "HIV-1 Tat [6]": {"biological_target": "T1, HIV-1 Tat", "assay": "competition; D1/2; unmodified 29-mer 60 nM; 29-mer probe", "settings": "hairpin with U-rich bulge"}, "HIV-1 Tat [7]": {"biological_target": "T1, HIV-1 Tat", "assay": "filter; Scatchard 11.8 nM; 50 mM Tris-HCl, 20 mM KCl, on ice, calf thymus DNA and yeast tRNA present", "settings": "label: 32P; stem-loop with 3-nt U-rich bulge"}, "HIV-1 Tat [8]": {"biological_target": "T1, HIV-1 Tat", "assay": "competition; D1/2; wild type 90 nM"}},
  "data": [
    {"molecule": "Antisense: anti-sense sequence to HIV-1 BRU TAR (antisense GGGUUCCCUAGUUAGCCAGAGAGCUCCCAGGCUCAAAUCUGGUCUAACCAGAGAGACCC; chemistry not given here) [reference compound]", "values": [
      {"measurement": "complex formation with tat in gel retardation assay", "setting": "HIV-1 tat protein [1]", "value": "No complexes were formed"},
      {"measurement": "Kd", "setting": "HIV-1 tat protein [2]", "value": "> 140", "unit": "nM"}
    ]},
    {"molecule": "HIV-2 TAR: first stem-loop structure of HIV-2 ROD TAR RNA, bulge of two uridine residues (CUGCGGAGAGGCUGGCAGAUUGAGCCCUGGGAGGUUCUCUCCAGCACUAGCAG; RNA, backbone not given here) [reference compound]", "values": [
      {"measurement": "KRel (ratio of D1/2 values for HIV-1 TAR and competitor RNA)", "setting": "HIV-1 tat protein [3]", "value": 0.40},
      {"measurement": "IC50", "setting": "HIV-1 tat protein [3]", "value": 160, "unit": "nM"},
      {"measurement": "complex formation with tat in gel retardation assay", "setting": "HIV-1 tat protein [1]", "value": "discrete complex formation"},
      {"measurement": "Kd", "setting": "HIV-1 tat protein [2]", "value": 30, "unit": "nM"}
    ]},
    {"molecule": "G28 to C28 ; C37 to G37: pair of TAR point mutations expected to have a normal TAR stem/loop structure (GGGUCUCUCUGGUUAGACCAGAUUUGACCCUGGGAGGUCUCUGGCUAACUAGGGAACCC; chemistry not given here)", "values": [
      {"measurement": "trans-activation phenotype", "setting": "[4]", "value": "restored to wild-type levels"},
      {"measurement": "KRel (ratio of D1/2 values for HIV-1 TAR and competitor RNA)", "setting": "HIV-1 tat protein [3]", "value": 0.84},
      {"measurement": "IC50", "setting": "HIV-1 tat protein [3]", "value": 76, "unit": "nM"},
      {"measurement": "Kd", "setting": "HIV-1 tat protein [2]", "value": 24, "unit": "nM"}
    ]},
    {"molecule": "18+15 duplex 4-thioT-23 (dsRNA, 4-thio-2'-deoxythymidine at U23 (nt 8) [8 (strand 1, 4-thio-2'-deoxythymidine)]) RNA 1: AGCCAGATUUGAGCAGCU RNA 2: AGCUGCUCUCUGGCU", "values": [
      {"measurement": "IC50", "setting": "HIV-1 Tat [5]", "value": 32, "unit": "nM"}
    ]},
    {"molecule": "GCCAGAUUUGAGCCUGGGAGCUCUCUGGC (ssRNA, 2'-deoxyuridine at U23 (nt 7) [7 (2'-deoxyuridine, U23)])", "note": "[29-mer dU-23]", "values": [
      {"measurement": "IC50", "setting": "HIV-1 Tat [6]", "value": 55, "unit": "nM"}
    ]},
    {"molecule": "HIV-1 TAR RNA 59-mer (UUU bulge) (ssRNA) RNA: GGGUCUCUCUGGUUAGACCAGAUUUGAGCCUGGGAGCUCUCUGGCUAACUAGGGAACCC", "values": [
      {"measurement": "Kd", "setting": "HIV-1 Tat [7]", "value": 12, "unit": "nM"}
    ]},
    {"molecule": "TAR A22 to U22; U40 to A40 (ssRNA) RNA: GGGUCUCUCUGGUUAGACCAGUUUUGAGCCUGGGAGCUCACUGGCUAACUAGGGAACCC", "values": [
      {"measurement": "IC50", "setting": "HIV-1 Tat [8]", "value": 220, "unit": "nM"}
    ]},
    {"molecule": "TAR G26 to C26; C39 to G39 (ssRNA) RNA: GGGUCUCUCUGGUUAGACCAGAUUUCAGCCUGGGAGCUGUCUGGCUAACUAGGGAACCC", "values": [
      {"measurement": "IC50", "setting": "HIV-1 Tat [8]", "value": 2370, "unit": "nM"}
    ]},
    {"molecule": "TAR C39 to G39 (ssRNA) RNA: GGGUCUCUCUGGUUAGACCAGAUUUGAGCCUGGGAGCUGUCUGGCUAACUAGGGAACCC", "values": [
      {"measurement": "IC50", "setting": "HIV-1 Tat [8]", "value": 1500, "unit": "nM"}
    ]},
    {"molecule": "TAR G26 to A26; C39 to U39 (ssRNA) RNA: GGGUCUCUCUGGUUAGACCAGAUUUAAGCCUGGGAGCUUUCUGGCUAACUAGGGAACCC", "values": [
      {"measurement": "IC50", "setting": "HIV-1 Tat [8]", "value": 631, "unit": "nM"}
    ]},
    {"molecule": "18+15 duplex 4-thioT-24 (dsRNA, 4-thio-2'-deoxythymidine at U24 (nt 9) [9 (strand 1, 4-thio-2'-deoxythymidine)]) RNA 1: AGCCAGAUTUGAGCAGCU RNA 2: AGCUGCUCUCUGGCU", "values": [
      {"measurement": "IC50", "setting": "HIV-1 Tat [5]", "value": 25, "unit": "nM"}
    ]},
    {"molecule": "GCCAGAUUUGAGCCUGGGAGCUCUCUGGC (ssRNA, 2'-OMe uridine at U23 (nt 7) [7 (2'-OMe uridine, U23)])", "note": "[29-mer 2'-OMeU-23]", "values": [
      {"measurement": "IC50", "setting": "HIV-1 Tat [6]", "value": 50, "unit": "nM"}
    ]}
  ]
}
